Assay results from publication PMC7875911 (Frontiers in Pharmacology, 2021).
Like-named read-outs stand apart in the source and are kept apart here. No end group written: not given here.

Legend:
[1] = test system: voltage-gated ion channels (VGICs); conditions: cited from earlier work; for inhibition of Nav and Cav channels (in words): Chuang et al., Yamamoto and Sakashita, Middleton et al., Sidach and Mintz, Xiao et al., 2005
[2] = test system: animal pain models; conditions: cited from earlier work
Text: […]. Nav channels are structurally related to voltage-gated calcium (Cav) channels, Cav1 and Cav2. […] […].

[3] = test system: Nav1.7; conditions: cited from earlier work
Text: Loss-of-function mutation of the SCN9A gene that codes for Nav1.7 leads to congenital insensitivity to pain ([Cox et al., 2006]), whereas SCN9A gain-of-function mutations causes paroxysmal extreme pain disorder and primary erythromelalgia ([Dib-Hajj et al., 2008]). […] Homology of VGIC voltage sensing domains, and particularly those of Nav channels, is at the crux of the development of genuinely selective Nav1.7 modulators ([Kingwell, 2019]). Given the VSD functional importance in neuronal VGICs and their structural homology, it is not surprising that VDPs target related channel families. […] Mammalian Nav and Cav α-subunits are structurally homologous but differ in their gating mechanisms ([Kubota et al., 2017]).

[4] = test system: HVA I Ca in small-diameter IB4 ^− DRG neurons; assay: cells
Protocol: Spinal level L3–L5 DRG were removed and placed in ice-cold HEPES-buffered saline (HBS) composed of (in mM): 154 NaCl, 2.5 KCl, 1.8 CaCl2, 1.5 MgCl2, 10 HEPES, and 10 glucose (pH 7.4, 330 ± 5 mOsm). Iridectomy scissors were utilized to cut up ganglia before incubation at 37°C for 15 min in oxygenated HBS containing 5 mg ml^−1 collagenase type 2 (Worthington Biochemical Corp, Lakewood, NJ, United States) followed by 25 min in oxygenated HBS containing 1 mg ml^−1 papain (Worthington Biochemical Corp). […] After enzyme treatment, ganglia were placed in 3 ml of HBS following two room temperature HBS washes. Ganglia were then triturated through fire-polished Pasteur pipettes with decreasing bores to extract cells. Finally, the cells mixed in HBS were plated onto surface modified culture dishes (Corning Primaria™ easy grip). […] DRG cells were pre-treated with 1 μg ml^−1 Alexa Fluor 488-conjugated Bandeiraea simplicifolia IB4 (Invitrogen) for 5 min at room temperature and washed with HBS for 5 min before fluorescence was examined on the inverted microscope (Olympus, IX50) used for patch clamp recordings.
Cell size was determined from an eyepiece graticule. Whole-cell electrophysiology was conducted at room temperature (22–24°C) in culture dishes perfused with room temperature HBS. The intracellular pipette solution contained (mM): 120 CsCl, 10 HEPES, 10 EGTA, 2 CaCl2, 5 MgATP, 5 Na2GTP, 5 NaCl; pH 7.3 (CsOH); 285 ± 5 mos mol l^−1.
An EPC-9 patch-clamp amplifier and corresponding PULSE software from HEKA Electronik (Lambrecht/Pfalz, Germany) were used to make recordings. Currents were sampled at 50 kHz and recorded on a hard disk. Borosilicate glass from AM Systems, Everett, WA, United States were used for patch pipettes. The input resistance of the pipettes ranged from 2 to 4 MΩ. […] A built-in procedure of the HEKA amplifier compensated for the capacitive transient currents. A −P/6 protocol was utilized to subtract leak current online. I Ca was generated with the recording protocol which included a depolarization from a holding potential of −80 mV to 0 mV for 10 ms every 30 s. I Na was generated through a recording protocol which included a step depolarization from a holding potential of −80 mV to 0 mV for 10 ms at a frequency of 0.1 Hz. Cells were perfused with the test compound via a pressure driven perfusion system (AutoMate Scientific, United States).
All data analysis and graphs were generated in OriginPro (Origin Lab Corporation, United States). […] Activation and SSI curves were fit by the modified Boltzmann equation: I or G=1/(1+exp(Vm−V0.5/ka)) Where I is the current or G is the conductance, Vm is the pre-pulse potential, V 0.5 is the half-maximal activation potential and ka is the slope factor.
Statistical significance (p < 0.05) was determined using unpaired Student’s t-test or 1-way ANOVA followed by a Tukey multiple comparison. All data is presented as mean ± SEM (n), where n is individual cells.

[5] = test system: N-type Cav channel; conditions: ref Chuang et al., 1998, Olamendi-Portugal et al., 2002, Sidach and Mintz; cited from earlier work
Text: (§1) Mammalian Nav and Cav α-subunits are structurally homologous but differ in their gating mechanisms ([Kubota et al., 2017]).

[6] = test system: Nav1.2 and Nav1.5; conditions: ref Chuang et al., 1998, Olamendi-Portugal et al., 2002, Sidach and Mintz; cited from earlier work
Text: as §1

[7] = test system: P-type calcium channels; conditions: ref Chuang et al., 1998, Olamendi-Portugal et al., 2002, Sidach and Mintz; cited from earlier work
Text: as §1

[8] = test system: T-type and L-type Cav channels; conditions: ref Chuang et al., 1998, Olamendi-Portugal et al., 2002, Sidach and Mintz; cited from earlier work
Text: as §1

[9] = ref Kuenzi and Dale, 1996, Caterina et al., 1997, McArthur et al., 2019
[10] = ref Swartz and MacKinnon, 1995, 1998, Li-Smerin and Swartz, 2002, Bosmans et al., 2008, Bladen et al., 2014

Oc1cc2c(cc1O)CN(C(=S)NCCc1ccc(Cl)cc1)CCC2 [capsazepine]
channel families acted on [1, 9]: TRPV1/Kv/Cav

Cn1nccc1-c1ccccc1Oc1ccc(S(=O)(=O)Nc2nccs2)cc1C#N [PF-04856264]
effect in rodent models of acute nociception or inflammatory pain (in words) ([2]; small molecule, ref Deuis et al., 2017): ineffective

COc1ccc2c3c1O[C@H]1C(=O)CC[C@@]4(O)[C@@H](C2)N(C)CC[C@]314 [oxycodone, reference compound]
effect on Nav1.7 currents (in words) ([3]; opioid receptor modulators, ref Mueller et al., 2019): did not alter Nav1.7 currents

NC1=N[C@H](O)[C@H]2[C@H]3O[C@]4(O)O[C@@H]([C@@H](O)[C@@]2(N1)[C@@H]4O)[C@]3(O)CO [tetrodotoxin]
channel families acted on [1]: Nav/Cav

COc1cc(CNC(=O)CCCC/C=C/C(C)C)ccc1O [capsaicin]
channel families acted on [1, 9]: TRPV1/Kv/Cav

[D-Ala^2, N-MePhe^4, Gly-ol]-Enkephalin [DAMGO, reference compound]
inhibition of HVA I Ca ([4]; 100 nM DAMGO applied alone, small IB4− rat DRG neurons, mean ± SEM, n = 6): 6.49 ± 1.07%
antinociceptive effect in the presence of Cav1 and Cav2.2 channel inhibitors (in words) ([2]; ref Contreras et al., 1988, Barro et al., 1995): enhanced

ProTxI: voltage-sensing domain (VSD) gating modifier toxin (ECRYWLGGCSAGQTCCKHLVCSRRHGWCVWDGTFS; ends and bridges not checked; cysteine pairing not given here; UniProt P83480 1-35, looked up)
channel families acted on ([1]; ref Middleton et al., 2002, Bosmans et al., 2008, Bladen et al., 2014, Gui et al.): Nav/Kv/Cav/TRPA1
inhibition of Nav and Cav channels (in words) [1, 10]: inhibit both Nav and Cav channels

C=CCN1CC[C@]23c4c5ccc(O)c4O[C@H]2C(=O)CC[C@@]3(O)[C@H]1C5 [naloxone, reference compound]
inhibition at 1 µM ([4]; Rattus norvegicus, DRG neuron, read-out: inhibition of I Ca): 1.68 ± 0.61%
effect on Nav1.7 currents (in words) [3]: did not alter Nav1.7 currents

CN1CC[C@]23c4c5ccc(O)c4O[C@H]2[C@@H](O)C=C[C@H]3[C@H]1C5 [morphine]
antinociceptive effect in the presence of Cav1 and Cav2.2 channel inhibitors (in words) ([2]; in vivo): enhanced

ProTxII
effect in rodent models of acute nociception or inflammatory pain (in words) ([2]; ref Schmalhofer et al., 2008): ineffective
channel families acted on ([1]; ref Middleton et al., 2002, Bladen et al., 2014): Nav/Cav
inhibition of Nav and Cav channels (in words) [1, 10]: inhibit both Nav and Cav channels

Hanatoxin
inhibition of Nav and Cav channels (in words) [1, 10]: inhibit both Nav and Cav channels
channel families acted on ([1]; ref Swartz and MacKinnon, 1995, Li-Smerin and Swartz, 1998, Bosmans et al., 2008): Kv/Nav/Cav

B1: Kurtoxin: scorpion peptide, gating modifier toxin (peptide, UniProt P58910 1-63, looked up)
Kurtoxin: KIDGYPVDYWNCKRICWYNNKYCNDLCKGLKADSGYCWGWTLSCYCQGLPDNARIKRSGRCRA
modifications: ends and bridges not checked
channel families acted on ([1]; ref Chuang et al., 1998): Nav/Cav
inhibition of Nav and Cav channels (in words) [1, 10]: inhibit both Nav and Cav channels
effect on N-type Cav channel kinetics (in words) [5]: little to no alteration
effect on inactivation of Nav1.2 and Nav1.5 (in words) [6]: slows inactivation
effect on deactivation (in words) [7]: slows deactivation
effect on deactivation (in words) [8]: accelerates deactivation
